Where two headings read alike, the source gives them in different places.
Legend:
[1] = test system: total tubulin levels in HeLa cells; set-up: method as in earlier work; conditions: 16 h incubation, ref 13 (Yang et al.); cited from earlier work
[2] = test system: acetylated α-tubulin (AcTub) levels in QBI293 cells; set-up: method as in PMID 26980057, PMID 33411523; conditions: activity reported in previous studies; cited from earlier work
[3] = test system: acetylated α-tubulin (AcTub) levels in QBI293 cells; experiment: QBI293 cell assay of MT stabilization: acetylated α-tubulin ELISA; assay type: cell-based
In short: (§1)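 AcTub and α-Tub were quantified by ELISA in whole-cell extracts normalized by BCA protein and expressed relative to vehicle. AcTub changes were also scaled to a 100 nM reference stabilizer control.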

[4] = test system: AcTub levels in OA-treated primary mouse cortical neurons; experiment: Okadaic acid (OA) assay, AcTub ELISA in primary mouse cortical neurons; assay type: cell-based; conditions: OA 15 nM, 8 h, compound 1 and 10 μM
Method: To further evaluate the activity of Class I alkyne derivatives and hybrid compounds, several compounds were also assessed for their ability to compensate for MT deficits in primary neuron cultures that were treated with the phosphatase inhibitor, okadaic acid (OA). As previously described,[11] treatment of rodent neurons with OA results in tau hyperphosphorylation and MT collapse that presumably results, at least in part, from tau disengagement from MTs. Co-treatment of neurons with Class I TPDs, such as 1, along with OA prevents this MT collapse, with a resulting normalization of MT structure and neuronal processes which can be observed upon visual inspection of the neurons or through an assessment of neuronal AcTub levels, while Class II TPDs are generally unable to provide meaningful compensation of MT deficits, especially when tested at higher (i.e., 10 μM) compound concentration.[11],[12]
Figure 4 ELISA determination of AcTub levels in homogenates from primary rat cortical neurons treated with either vehicle, or OA (15 nM) in the presence of vehicle or TPD 1, 8, 9 (A); and primary mouse cortical neurons treated with vehicle, or OA (15 nM) in the presence of vehicle or TPD 1, 24, 45, 46, 53, 54 (B). Error bars represent SEM, with ***, p < 0.001 relative to vehicle treatment in the absence of OA as determined by one-way ANOVA.
Compound-induced changes in acetylated-tubulin and α-tubulin in QBI293 cells or primary mouse or rat neurons were as previously described.[11],[12] For compound testing, QBI293 cells were plated at a density of 2 × 10^5 cells/well in 12-well plates. The plated cells were incubated overnight, after which the medium was aspirated and fresh medium containing vehicle (0.25–0.3% DMSO) or test compound was added. Test compounds were prepared as 4–20 mM stock solutions in 100% DMSO, and these were diluted in culture medium prior to addition to the QBI293 cells. After 4 h incubation, whole-cell extracts were prepared from the QBI293 cells as described[11] and the supernatant fraction from each sample was assessed for protein content by bicinchoninic acid (BCA) assay. The amount of acetyl-tubulin (AcTub) and α-tubulin (αTub) within the cell extract samples was quantified using specific enzyme-linked immunosorbent assays (ELISA), as previously described.[11] Acetyl-tubulin levels were determined in a similar manner in rat or mouse cortical neuron cultures in which embryonic dissociated cortical neurons were plated at 3 × 10^5 cells/well in poly-D-lysine-coated 12-well plates, essentially as previously described.[11] The neurons were allowed to grow for 10 days before they were treated for 8 h with 15 nM okadaic acid in the presence or absence of test compound prepared as described above, or vehicle (0.25% DMSO). Culture homogenates were prepared for the determination of AcTub levels by ELISA as previously described.[11]
VehicleVehicleVehicleVehicle25 (1 µM)
Figure S2. Assessment of AcTub levels in primary mouse cortical neurons treated with vehicle,
(§2) (1 picture or pasted object on this page, not shown here)

[5] = test system: total α-tubulin (α-Tub) levels in QBI293 cells; experiment: QBI293 cell assay: total α-tubulin ELISA; assay type: cell-based
In short: as §1

[6] = test system: de-tyrosinated α-tubulin (GluTub) in brain of WT mice; experiment: Brain PD: Glu-tubulin in brain tissue after compound treatment; assay type: in vivo, mouse; conditions: WT CD-1 mice, 1 mg/kg i.p. once daily for two consecutive days
Method: Finally, to evaluate target engagement in the CNS, PD studies were conducted to determine compound-dependent elevations in the stable MT marker, de-tyrosinated α-tubulin (GluTub), in brain homogenates from compound-treated WT mice.
All animal protocols were approved by the University of Pennsylvania Institutional Animal Care and Use Committee (IACUC). […] Compounds were diluted from 20 or 40 mM DMSO stock solutions into 30% Kolliphor EL (Sigma-Aldrich) phosphate-buffered saline, pH 7.4. After 4 h following the second injection, mice were euthanized and cortices and hippocampi were isolated from each brain and placed in 0.2 mL of ice-cold radioimmunoprecipitation assay (RIPA) buffer (50 mM Tris, 150 mM NaCl, 5 mM EDTA, 0.5% sodium deoxycholate, 1% NP-40, 0.1% sodium dodecyl sulfate (SDS), pH 8.0) containing protease inhibitor (PI) cocktail (Sigma-Aldrich), 1 mM phenylmethylsulfonyl fluoride (PMSF) (Sigma-Aldrich), and 3 μM trichostatin A (TSA) (Sigma-Aldrich). The brain samples were homogenized with a handheld battery-operated mixer and subsequently sonicated. After centrifugation at 100,000g for 30 min at 4 °C, supernatant samples were transferred to a new tube and the pellets were resuspended in 0.15 mL of RIPA buffer and again homogenized, sonicated, and centrifuged. The supernatant from the second centrifugation was pooled with that from the first. The combined supernatant samples were assessed for protein concentration using a BCA assay (Thermo Fisher Scientific), and equal protein amounts from each brain sample underwent separation by 10% sodium dodecyl sulfate polyacrylamide gel electrophoresis (SDS-PAGE) followed by transfer onto nitrocellulose membranes essentially as previously described.[11] […] Incubation with infrared dye-conjugated secondary antibodies and subsequent imaging and quantification of the blots on the Odyssey imaging system were as described.[11]

[7] = Plasma pharmacokinetics in CD-1 mice; assay type: in vivo, mouse; conditions: male, mouse
Method: Studies to determine the pharmacokinetic properties of compounds 53 and 60 were conducted at Touchstone Biosciences (Plymouth Meeting, PA). For the determination of plasma pharmacokinetics, three male CD-1 mice (2–3 months of age) were injected i.v. (tail vein) with test compound at a dose of 5 mg/kg in a solution of 10% DMSO, 40% polyethylene glycol, and 50% water, and another three male CD-1 mice received oral gavage dosing of 60 formulated as above at a dose of 20 mg/kg. Blood samples were collected from the saphenous or submandibular veins at multiple time points after dosing and collected in Greiner MiniCollect K2EDTA tubes. Compound levels in plasma were determined by LC-MS/MS, using protocols similar to those previously described.[16],[22]

[8] = Brain-to-plasma ratio in mice; assay type: in vivo; conditions: mouse, ip, 1 h post-administration, i.p. 1.5 mg/kg, read-out: brain-to-plasma ratio (B/P)
[9] = Resazurin cell viability assay, QBI293; assay type: cell-based; conditions: human, QBI293 cells, three biological replicates, read-out: QBI293 CC50 ± SD
Method: (§3) Cell Culture. QBI293 and HeLa cells were cultured in DMEM supplemented with 10% heat-
(§4) inactivated FBS and 1% penicillin-streptomycin. Cells were grown in T175 cell culture flasks maintained
(§5) at 37 ℃ in 5% CO2 and sub-c ultured when at 60-8 0% cell confluence.
(§6) Resazurin Cell Viability Assay. Cytotoxicity in QBI293 and HeLa cells was measured using the
(§7) resazurin cell viability assay.1 Test compounds were serially diluted in DMSO and added to 96-well
(§8) polystyrene assay plates to give final assay concentrations ranging from 100 nM to 4000 nM (1 µL; 1%
(§9) total DMSO). Fresh medium was added to the assay plate (49 µL/well). QBI293 or HeLa cells were
(§10) cells/well. Assay plates were incubated at 37 °C and 5% CO2 for 48 h, followed by addition of 20 µL 0.5
(§11) mM resazurin (Alfa Aesar, Cat. B21187) in PBS to each well. Assay plates were incubated in the dark for
as §2
(§12) 4 h at 37 °C. Fluorescence was measured at 531 nm and 595 nm excitation and emission wavelengths,
(§13) respectively, using a 2104 EnVision® multilabel plate reader. The viability of each well was normalized to
(§14) positive and negative controls in each assay plate. Dose-response curves were generated and CC50 values
(§15) calculated with GraphPad Prism, version 9.3 (San Diego, CA) using a sigmoidal four parameter logistic
(§16) curve. The means ± standard deviations from three biological replicates are shown.
(§17) (1) O'Brien, J.; Wilson, I.; Orton, T.; Pognan, F. Investigation of the Alamar Blue (resazurin) fluorescent
(§18) dye for the assessment of mammalian cell cytotoxicity. Eur. J. Biochem. 2000, 267 (17), 5421-5426.

[10] = Resazurin cell viability assay, HeLa; assay type: cell-based; conditions: human, HeLa cells, three biological replicates, read-out: HeLa CC50 ± SD
Method: as §3, §4, §5, §6, §7, §8, §9, §10, §11, §2, §12, §13, §14, §15, §16, §17, §18

[11] = 4 h, 1 uM compound, read-out: AcTub (1uM)
[12] = 4 h, 10 uM compound, read-out: AcTub (10 uM)
[13] = 4 h incubation, 1 μM, read-out: AcTub 1 μM, fold-change compared to vehicle (DMSO)-treated cells
[14] = 4 h incubation, 10 μM, read-out: AcTub 10 μM, fold-change compared to vehicle (DMSO)-treated cells
[15] = 4 h, 1 uM compound, read-out: AlfaTub (1uM)
[16] = 4 h, 10 uM compound, read-out: AlfaTub (10 uM)
[17] = 4 h incubation, 1 μM, read-out: α-Tub 1 μM, fold-change compared to vehicle (DMSO)-treated cells
[18] = 4 h incubation, 10 μM, read-out: α-Tub 10 μM, fold-change compared to vehicle (DMSO)-treated cells

SMILES	Class (cellular phenotype) [2]	AcTub (1 uM - normalized) ([3]; 1 uM compound)	AcTub (10 uM - normalized) ([3]; 10 uM compound)	fold induction at 1 µM [3, 11]	fold induction at 10 µM [3, 12]	AcTub 1 μM, fold-change compared to positive control compound 5 (100 nM) (in parentheses) ([3]; 4 h incubation, 1 μM) [fold-change]	fold induction at 1 µM [3, 13]	AcTub 10 μM, fold-change compared to positive control compound 5 (100 nM) (in parentheses) ([3]; 4 h incubation, 10 μM) [fold-change]	fold induction at 10 µM [3, 14]	fold induction at 1 µM [5, 15]	fold induction at 10 µM [5, 16]	fold induction at 1 µM [5, 17]	fold induction at 10 µM [5, 18]	brain GluTub (GluTub-to-total α-Tub ratio) relative to vehicle-treated mice [6]	other results
C[C@H](Nc1c(-c2c(F)cc(F)cc2F)c(Cl)nc2ncnn12)C(F)(F)F [Compound 2]	I														total tubulin levels [1]: reduction in total tubulin levels
C[C@@H](Nc1c(-c2c(F)cc(C#CCCCO)cc2F)c(Cl)nc2ncnn12)C(C)(C)C [Compound 54, (R)-5-(4-(5-Chloro-7-((3,3-dimethylbutan-2-yl)amino)-[1,2,4]triazolo[1,5-a]pyrimidin-6-yl)-3,5-difluorophenyl)pent-4-yn-1-ol]		0.74	0.87	4.78	5.59	0.74	4.78 ± 1	0.87	5.59 ± 0.26	1.19	1.14	1.19 ± 0.11	1.14 ± 0.077		prevention/correction of OA-induced MT collapse (AcTub levels) [4]: can prevent the OA-induced MT collapse
C[C@@H](Nc1c(-c2c(F)cc(C#CCCN(C)C)cc2F)c(Cl)nc2ncnn12)C(C)(C)C [Compound 60, (R)-5-Chloro-6-(4-(4-(dimethylamino)but-1-yn-1-yl)-2,6-difluorophenyl)-N-(3,3-dimethylbutan-2-yl)-[1,2,4]triazolo[1,5-a]pyrimidin-7-amine]		1.75	1.28	9.5	6.94	1.75	9.5 ± 0.34	1.28	6.94 ± 0.22	0.94	0.98	0.94 ± 0.01	0.98 ± 0.01	significant elevations in brain GluTub	Vd at 24 h ([7]; iv, i.v. 5 mg/kg): 4.8 L/kg; clearance at 24 h ([7]; iv, i.v. 5 mg/kg): 8.2 mL/min/kg; half-life ([7]; iv, i.v. 5 mg/kg, read-out: half-life (T1/2)): > 6 h; half-life at 24 h ([7]; iv, i.v. 5 mg/kg, read-out: half-life (T1/2) (converted)): 6.8 h; bioavailability ([7]; oral, 5 mg/kg i.v. and 20 mg/kg p.o., read-out: oral bioavailability (F)): > 50%; bioavailability at 24 h ([7]; po, 5 mg/kg i.v. and 20 mg/kg p.o., read-out: oral bioavailability (F)): 56%; Kp at 1 h [8]: ~0.5
C[C@@H](Nc1c(-c2c(F)cc(C#N)cc2F)c(Cl)nc2ncnn12)C(C)(C)C [Compound 68]	I													significant elevations in brain GluTub	CC50 at 48 h [9]: 30.7 ± 5.2 nM; CC50 at 48 h [10]: 41.7 ± 3 nM
